According to US12173026B2, “PRMT5 inhibitors” (Merck Sharp & Dohme LLC, priority 2018, dated 2024):

The molecules below were run on symmetric dimethylation of arginine (SDMA) of PRMT5 substrates in MCF-7 cells (assay: PRMT5 Cell Target Engagement (TE) Assay). Settings: Homo sapiens, MCF7, 72 h; MCF-7 cells treated for 3 days; nuclear SDMA by high content imaging; top concentration 10000 nM.
Format: cell-based
Text: PRMT5 Cell Target Engagement (TE) Assay
The PRMT5 TE assay is a biomarker assay for identifying compounds that inhibit symmetric dimethylation of arginine (SDMA) of PRMT5 substrates. The following substrates have been reported for PRMT5: Histone H2A and H4 R3, Histone H3 R2, Histone 1-13 R8, spliceosome Sm proteins, ribosomal protein RPS10, p53, FEN1, nucleoplasmin, nucleolin, EGFR and EBNA. The assay will focus on detecting symnetrically dimethylated nuclear proteins using high content imaging technology. Detection of the expression of symmetrically dimethylated nuclear proteins is through a mixture of primary rabbit monoclonal antibodies to SDMA (CST 13222) which in turn recognized by an Alexafluor 488 dye-conjugated anti-rabbit IgG secondary antibody. The IN Cell Analyzer 2200 or Opera-Phenix measures nuclear Alexafluor 488 fluorescent dye intensity that is directly related to the level of expression of symmetrically dimethylated nuclear proteins at the single cell level. Nuclear AF488 dye intensities are compared to the mean value for DMSO treated cells (MIN) to report percent of inhibition for each compound-treated well.
In this assay, the cell potency (EC50) of each compound was determined from a ten point (1:3 serial dilution; top compound concentration of 10000 nM) titration curve using the following outlined procedure. Each well of a BD falcon collagen coated black/clear bottom 384-well plate was seeded with 4000 MCF-7 cells in 30 pal media and allowed to attach for 5 hours. Media is ATCC-formulated Eagle's Minimum Essential Medium, Catalog No. 30-2003. The following components were added to the base medium: 0.01 mg/mL human recombinant insulin; fetal bovine serum to a final concentration of 10%. Additional 30 pal of media containing 2× compounds were added to each well. Cells were treated for 3 days in 37° C. CO2 incubator. On day 3, cells were fixed with Cytofix, permeabilized with 0.4% Triton-X-100/Cytofix, and washed with D-PBS without Ca/Mg. Cells were blocked with Licor Odessey blocking reagent for 1 hour at room temperature, followed by incubation with anti-SDMA (1:1000) antibody at 4° C. overnight. 1° antibody was removed, followed by three washings with DPBS without Ca/Mg and 0.05% Tween20. Hoechst (5 μg/mL), Cell Mask deep stain (1:2000) and Alexa488-conjugated goat anti-rabbit IgG (2 μg/mL) was added for 1 hour at room temperature. A final washing step (three washes) was performed before sealing plate for imaging on in Cell Analyzer 2200 or Opera-Phenix. Images from analyzer were uploaded to Columbus for image analysis. IC50 values were determined by 4 parameters robust fit of percent fluorescence units vs. (Log 10) compound concentrations.
Molecule `C[C@@]1(O)[C@@H](COc2ccc3cc(Br)c(N)nc3c2)C[C@@H](n2ccc3c(Cl)ncnc32)[C@@H]1O` [Example 1] has an EC50 of 18 nM.
For `C[C@@]1(O)[C@@H](COc2ccc3cc(Br)c(N)nc3c2)C[C@@H](n2ccc3c(N)ncnc32)[C@@H]1O` [Example 2], the EC50 was 0.7 nM.
`C#C[C@@]1(O)[C@@H](COc2ccc3cc(Br)c(N)nc3c2)O[C@@H](n2ccc3c(N)ncnc32)[C@@H]1O` [Example 3, (2R,3S,4R,5R)-2-(((2-amino-3-bromoquinolin-7-yl)oxy)methyl)-5-(4-amino-7H-pyrrolo[2,3-d]pyrimidin-7-yl)-3-ethynyltetrahydrofuran-3,4-diol] was tested, and the EC50 was 20 nM.
With `C[C@]1(CCc2ccc3cc(Br)c(N)nc3c2)O[C@@H](n2ccc3c(N)ncnc32)[C@H](O)[C@]1(C)O` [Example 4, (2R,3S,4R,5R)-2-(2-(2-amino-3-bromoquinolin-7-yl)ethyl)-5-(4-amino-7H-pyrrolo[2,3-d]pyrimidin-7-yl)-2,3-dimethyltetrahydrofuran-3,4-diol] the EC50 was 186 nM.
With `Nc1nc2cc(O[C@H]3CC[C@@]4(O)[C@@H]3O[C@@H](n3ccc5c(Cl)ncnc53)[C@@H]4O)ccc2cc1Br` [Example 5, (2R,3R,3aS,6S,6aR)-6-((2-amino-3-bromoquinolin-7-yl)oxy)-2-(4-chloro-7H-pyrrolo[2,3-d]pyrimidin-7-yl)hexahydro-2H-cyclopenta[b]furan-3,3a-diol] the EC50 was 19 nM.
In the case of `Nc1nc2cc(O[C@H]3CC[C@@]4(O)[C@@H]3O[C@@H](n3ccc5c(N)ncnc53)[C@@H]4O)ccc2cc1Br` [Example 6, (2R,3R,3aS,6S,6aR)-6-((2-amino-3-bromoquinolin-7-yl)oxy)-2-(4-amino-7H-pyrrolo[2,3-d]pyrimidin-7-yl)hexahydro-2H-cyclopenta[b]furan-3,3a-diol], the EC50 is reported as 1.2 nM.
`Cc1ncnc2c1ccn2[C@@H]1O[C@@H]2[C@@H](Oc3ccc4cc(Br)c(N)nc4c3)CC[C@]2(O)[C@H]1O` [Example 7, (2R,3R,3aS,6S,6aR)-6-((2-amino-3-bromoquinolin-7-yl)oxy)-2-(4-methyl-7H-pyrrolo[2,3-d]pyrimidin-7-yl)hexahydro-2H-cyclopenta[b]furan-3,3a-diol] gave an EC50 of 4.8 nM.
Work on `Cc1ncnc2c1ccn2[C@@H]1O[C@@H]2[C@H](Cc3ccc4cc(Br)c(N)nc4c3)CC[C@]2(O)[C@H]1O` [Example 8, (2R,3R,3aS,6S,6aR)-6-((2-amino-3-bromoquinolin-7-yl)methyl)-2-(4-methyl-7H-pyrrolo[2,3-d]pyrimidin-7-yl)hexahydro-2H-cyclopenta[b]furan-3,3a-diol] yielded an EC50 of 0.5 nM.
In the case of `Nc1nc2cc(C[C@@H]3CC[C@@]4(O)[C@@H]3O[C@@H](n3ccc5c(N)ncnc53)[C@@H]4O)ccc2cc1Br` [Example 9, (2R,3R,3aS,6S,6aR)-6-((2-amino-3-bromoquinolin-7-yl)methyl)-2-(4-amino-7H-pyrrolo[2,3-d]pyrimidin-7-yl)hexahydro-2H-cyclopenta[b]furan-3,3a-diol], the EC50 is reported as 1.3 nM.
`C[C@@]1(O)[C@@H](COc2ccc3cc(Br)c(N)nc3c2)O[C@@H](n2ccc3c(N)ncnc32)[C@@H]1O` [Example 10, (2R,3S,4R,5R)-2-(((2-amino-3-bromoquinolin-7-yl)oxy)methyl)-5-(4-amino-7H-pyrrolo[2,3-d]pyrimidin-7-yl)-3-methyltetrahydrofuran-3,4-diol] showed an EC50 of 6.4 nM.
For `C[C@@]1(O)[C@@H](COc2ccc3cc(Br)c(N)nc3c2)O[C@@H](n2ccc3c(Cl)ncnc32)[C@@H]1O` [Example 11, (2R,3S,4R,5R)-2-{[(2-amino-3-bromoquinolin-7-yl)oxy]methyl}-5-(4-chloro-7H-pyrrolo[2,3-d]pyrimidin-7-yl)-3-methyltetrahydrofuran-3,4-diol], the EC50 was 131 nM.
`COc1ncnc2c1ccn2[C@@H]1O[C@](C)(COc2ccc3cc(Br)c(N)nc3c2)[C@@H](O)[C@H]1O` [Example 12, (2R,3S,4R,5R)-2-(((2-amino-3-bromoquinolin-7-yl)oxy)methyl)-5-(4-methoxy-7H-pyrrolo[2,3-d]pyrimidin-7-yl)-2-methyltetrahydrofuran-3,4-diol] gave an EC50 of 10000 nM.
In the case of `C[C@]1(COc2ccc3cc(Br)c(N)nc3c2)O[C@@H](n2ccc3c(N)ncnc32)[C@H](O)[C@@H]1O` [Example 13, (2R,3S,4R,5R)-2-(((2-amino-3-bromoquinolin-7-yl)oxy)methyl)-5-(4-amino-7H-pyrrolo[2,3-d]pyrimidin-7-yl)-2-methyltetrahydrofuran-3,4-diol], the EC50 is reported as 14 nM.
`C[C@@]1(O)[C@@H](CCc2ccc3cc(Br)c(N)nc3c2)O[C@@H](n2ccc3c(N)ncnc32)[C@@H]1O` [Example 14, (2R,3S,4R,5R)-2-(2-(2-amino-3-bromoquinolin-7-yl)ethyl)-5-(4-amino-7H-pyrrolo[2,3-d]pyrimidin-7-yl)-3-methyltetrahydrofuran-3,4-diol] showed an EC50 of 17 nM.
Work on `C[C@]1(CCc2ccc3cc(Br)c(N)nc3c2)C[C@@H](n2ccc3c(N)ncnc32)[C@H](O)[C@@H]1O` [Example 15, (1S,2R,3S,5R)-3-[2-(2-amino-3-bromo-7-quinolinyl)ethyl]-5-(4-amino-7H-pyrrolo[2,3-d]pyrimidin-7-yl)-3-methyl-1,2-cyclopentanediol] yielded an EC50 of 0.5 nM.
In the case of `Cc1ncnc2c1ccn2[C@@H]1C[C@@H]2[C@H](Cc3ccc4cc(F)c(N)nc4c3)CC[C@]2(O)[C@H]1O` [Example 16, (1S,2R,3aR,4S,6aR)-4-((2-amino-fluoroquinolin-7-yl)methyl)-2-(4-methyl-7H-pyrrolo[2,3-d]pyrimidin-7-yl)hexahydropentalene-1,6a(1H)-diol], the EC50 is reported as 0.9 nM.
`Cc1ncnc2c1ccn2[C@@H]1C[C@@H]2[C@H](Cc3ccc4cc(Cl)c(N)nc4c3)CC[C@]2(O)[C@H]1O` [Example 17, (1S,2R,3aR,4S,6aR)-4-((2-amino-3-chloroquinolin-7-yl)methyl)-2-(4-methyl-7H-pyrrolo[2,3-d]pyrimidin-7-yl)hexahydropentalene-1,6a(1H)-diol] gave an EC50 of 0.9 nM.
`Cc1ncnc2c1ccn2[C@@H]1C[C@@H]2[C@@H](Cc3ccc4cc(F)c(N)nc4c3)CC[C@]2(O)[C@H]1O` [Example 18, (1S,2R,3aR,4R,6aR)-4-((2-amino-3-fluoroquinolin-7-yl)methyl)-2-(4-methyl-7H-pyrrolo[2,3-d]pyrimidin-7-yl)hexahydropentalene-1,6a(1H)-diol] gave an EC50 of 10.6 nM.
`Cc1ncnc2c1ccn2[C@@H]1C[C@@H]2[C@H](Cc3ccc4cc(Br)c(N)nc4c3)CC[C@]2(O)[C@H]1O` [Example 19, (1S,2R,3aR,4S,6aR)-4-((2-amino-3-bromoquinolin-7-yl)methyl)-2-(4-methyl-7H-pyrrolo[2,3-d]pyrimidin-7-yl)hexahydropentalene-1,6a(1H)-diol] gave an EC50 of 1.1 nM.
In the case of `Nc1nc2c(F)c(C[C@@H]3CC[C@@]4(O)[C@@H]3O[C@@H](n3ccc5c(N)ncnc53)[C@@H]4O)ccc2cc1F` [Example 20, (2R,3R,3aS,6S,6aR)-6-[(2-amino-3,8-difluoroquinolin-7-yl)methyl]-2-(4-amino-7H-pyrrolo[2,3-d]pyrimidin-7-yl)hexahydro-3aH-cyclopenta[b]furan-3,3a-diol], the EC50 is reported as 18.6 nM.
In the case of `Nc1nc2cc(C[C@@H]3CC[C@@]4(O)[C@@H]3O[C@@H](n3ccc5c(N)ncnc53)[C@@H]4O)cc(F)c2cc1Cl` [Example 21, (2R,3R,3aS,6S,6aR)-6-[(2-amino-3-chloro-5-fluoroquinolin-7-yl)methyl]-2-(4-amino-7H-pyrrolo[2,3-d]pyrimidin-7-yl)hexahydro-3aH-cyclopenta[b]furan-3,3a-diol], the EC50 is reported as 0.5 nM.
Work on `Cc1ncnc2c1ccn2[C@@H]1O[C@@H]2[C@H](Cc3ccc4cc(Cl)c(N)nc4c3F)CC[C@]2(O)[C@H]1O` [Example 22, (2R,3R,3aS,6S,6aR)-6-[(2-amino-3-chloro-8-fluoroquinolin-7-yl)methyl]-2-(4-methyl-7H-pyrrolo[2,3-d]pyrimidin-7-yl)hexahydro-3aH-cyclopenta[b]furan-3,3a-diol] yielded an EC50 of 30 nM.
Work on `Cc1ncnc2c1ccn2[C@@H]1O[C@@H]2[C@H](Cc3ccc4cc(C(F)F)c(N)nc4c3)CC[C@]2(O)[C@H]1O` [Example 23, (2R,3R,3aS,6S,6aR)-6-((2-amino-3-(difluoromethyl)quinolin-7-yl)methyl)-2-(4-methyl-7H-pyrrolo[2,3-d]pyrimidin-7-yl)hexahydro-3aH-cyclopenta[b]furan-3,3a-diol] yielded an EC50 of 1.5 nM.
